# According to publication PMC9607343, “Synthesis, Conformational Analysis and Evaluation of the 2-aryl-4-(4-bromo-2-hydroxyphenyl)benzo[1,5]thiazepines as Potential α-Glucosidase and/or α-Amylase Inhibitors” (Molecules, 2022):
# Columns and labels:
# α-glucosidase = experiment: In vitro α-glucosidase inhibitory assay (PNP-G substrate); assay type: biochemical; conditions: for SI (selectivity index): SI = IC50(α-glucosidase)/IC50(α-amylase); for IC50: three independent experiments, acarbose positive control, read-out: IC50 Values (µM ± SD) α-Glucosidase
# Experimental: (§1) The IC50 values (μM) represented in Table 3 were calculated from the log dose-inhibition curves and are expressed as means ± standard deviations (SD) of three independent experiments. […] Inhibitors of α-glucosidase with mild inhibitory activity against α-amylase, on the other hand, constitute one of the major therapeutic strategies for the treatment of T2DM.
# All the tests and analyses were performed in triplicates following a literature method described in our previous study. The stock solutions of the test compounds (200 µM) were prepared in DMSO, followed by dilution with a 100 mM phosphate buffer to obtain the concentrations of 100 µM. […] The enzyme solution (0.48 u/mL α-glucosidase, 17 µL); phosphate buffer (100 mM, pH 6.8; 50 µL); and test sample in DMSO (17 µL) were incubated at 37 °C for 10 min. After pre-incubation, 17 µL of 2 mM p-nitrophenyl-α-d-glucopyranoside (PNP-G) was added to each of the wells containing reaction mixtures to initiate the reaction. The absorbance was measured at 405 nm using a Bio-Rad microplate reader. The IC50 concentration was calculated using the AAT Bioquest online calculator.
# α-amylase = experiment: In vitro α-amylase inhibitory assay (CNP-G3 substrate); assay type: biochemical; conditions: three independent experiments; acarbose positive control; read-out: IC50 Values (µM ± SD) α-Amylase
# Experimental: as §1
# The α-amylase inhibitory assay was performed in 96-well microplates using a final volume of 200 μL, following a procedure described in the literature study. The enzyme assay was performed with a phosphate buffer ([…]) containing 0.02% NaN3 and adjusted to pH 6.0 with 2.0 M phosphoric acid. […] The enzyme solution (2.0 u/mL α-amylase, 5 µL); phosphate buffer ([…], pH 6.0; 175 µL); and 10 µL test sample were incubated at 37 °C for 10 min. After pre-incubation, 10 µL of 10 mM of 2-chloro-4-nitrophenyl-α-D-maltotrioside (CNP-G3) was added to each of the wells containing reaction mixtures to initiate the reaction. The absorbance was measured at 405 nm using a Bio-Rad microplate reader. The IC50 values were calculated using the AAT Bioquest online calculator.
structure (smiles),measurement,setting,value
"COc1ccc(C2CC(c3cc(Br)ccc3O)=Nc3ccccc3S2)cc1 (centres unmarked) [Compound 2e, 4-Bromo-2-((E)-2,3-dihydro-2-(4-methoxyphenyl)benzo[b][1,5]thiazepine-4-yl)phenol]",SI (selectivity index),α-glucosidase,0.29
same,IC50,α-glucosidase,15.87 ± 0.13 µM
same,IC50,α-amylase,55.14 ± 0.19 µM
same,melting point,,131 to 136 °C
"COc1cccc(C2CC(c3cc(Br)ccc3O)=Nc3ccccc3S2)c1 (centres unmarked) [Compound 2d, 4-Bromo-2-((E)-2,3-dihydro-2-(3-methoxyphenyl)benzo[b][1,5]thiazepine-4-yl)phenol]",SI (selectivity index),α-glucosidase,0.29
same,IC50,α-glucosidase,13.2 ± 1 µM
same,IC50,α-amylase,46.16 ± 0.31 µM
same,melting point,,161 to 167 °C
"CC(C)c1ccc(C2CC(c3cc(Br)ccc3O)=Nc3ccccc3S2)cc1 (centres unmarked) [Compound 2f, 4-Bromo-2-((E)-2,3-dihydro-2-(4-isopropylphenyl)benzo[b][1,5]thiazepine-4-yl)phenol]",SI (selectivity index),α-glucosidase,0.67
same,IC50,α-glucosidase,6.54 ± 0.11 µM
same,IC50,α-amylase,9.71 ± 0.5 µM
same,melting point,,126 to 131 °C
"Oc1ccc(Br)cc1C1=Nc2ccccc2SC(c2ccc(F)cc2)C1 (centres unmarked) [Compound 2b, 4-Bromo-2-((E)-2,3-dihydro-2-(4-fluorophenyl)benzo[b][1,5]thiazepine-4-yl)phenol]",SI (selectivity index),α-glucosidase,1.09
same,IC50,α-glucosidase,17.2 ± 0.07 µM
same,IC50,α-amylase,15.85 ± 0.05 µM
same,melting point,,128 to 134 °C
"Oc1ccc(Br)cc1C1=Nc2ccccc2SC(c2ccccc2)C1 (centres unmarked) [Compound 2a, 4-Bromo-2-((E)-2,3-dihydro-2-phenylbenzo[b][1,5]thiazepine-4-yl)phenol]",IC50,α-glucosidase,6.7 ± 0.15 µM
same,IC50,α-amylase,20.87 ± 0.08 µM
same,melting point,,128 to 137 °C
"Oc1ccc(Br)cc1C1=Nc2ccccc2SC(c2ccc(Cl)cc2)C1 (centres unmarked) [Compound 2c, 4-Bromo-2-((E)-2,3-dihydro-2-(4-chlorophenyl)benzo[b][1,5]thiazepine-4-yl)phenol]",SI (selectivity index),α-glucosidase,0.12
same,IC50,α-glucosidase,2.69 ± 0.27 µM
same,IC50,α-amylase,22.86 ± 0.04 µM
same,melting point,,167 to 172 °C
